Data: PMC3704178 (ACS medicinal chemistry letters, 2013)

What was measured:
[1] = test system: PrP^Sc level in RML prion-infected mouse neuroblastoma cells (ScN2a-cl3); assay type: cell-based
[2] = Microsomal stability, mouse microsomes
[3] = Microsomal stability, human microsomes

## CC(=O)c1ccc(N2CCN(Cc3cccnc3)CC2)cc1 [Compound 7]
[1]
  Antiprion potency EC50 ± SEM: micromolar range

## c1cncc(CN2CCN(c3ccc(-c4nc5ccccc5s4)cc3)CC2)c1 [Compound 44]
[2]
  Fold improvement of t1/2 in mouse microsomes compared to 41: approximately 2 fold

## CC(=O)c1ccc(N2CCN(Cc3cccs3)CC2)cc1 [Compound 13]
[1]
  Antiprion potency EC50 ± SEM: micromolar range

## COc1ccc(CN2CCN(c3ccc(-c4nc5ccccc5o4)cc3)CC2)cn1 [Compound 47]
[3]
  Fold increase in stability in human microsomes compared to 41: approximately 3 fold
[2]
  Fold improvement of t1/2 in mouse microsomes compared to 41: approximately 3 fold
[1]
  Fold less potent (EC50) than parent pyridine analog 41: 4.5 fold

## CC(=O)c1ccc(N2CCN(Cc3ccc(C)o3)CC2)cc1 [Compound 19]
[1]
  Antiprion potency EC50 ± SEM: micromolar range

## CC(=O)c1ccc(N2CCN(Cc3ccccc3)CC2)cc1 [Compound 1]
[1]
  Antiprion potency EC50 ± SEM: micromolar range

## c1cncc(CN2CCN(c3ccc(-c4nc5ccccc5o4)cc3)CC2)c1 [Compound 41]
[1]
  Fold more potent (EC50) than furanyl 42 and thiophenyl 43: ≥ 13 fold

## Fc1ccc(CN2CCN(c3ccc(-c4nc5ccccc5o4)cc3)CC2)cn1 [Compound 46]
[1]
  Fold less potent (EC50) than parent pyridine analog 41: 1.5 fold
